In patent US4446133A, “1-Phenyl-4-carbamoyl piperazine compounds, process for preparation thereof and utilizations thereof” (Misuitoatsu Chemicals, Inc., priority 1980, dated 1984):
Structures can show the parent of a compound that is named as a salt.

Experiments:
adjuvant arthritis = assay: Test 2: Adjuvant Arthritis Test; assay type: in vivo, SD male rats; settings: 5 mg/kg subcutaneous, 9 times, left hind leg, * P<0.05, ** P<0.01; for Swelling Ratio (average value ± standard variation), 15 days: control 84.4 ± 9.0; for Swelling Ratio (average value ± standard variation), 18 days: control 103.2 ± 9.7; for Swelling Ratio (average value ± standard variation), 21 days: control 107.5 ± 13.3
EL-4 leukemic cells = assay: Test 3: In-Vitro Test of Inhibition of Growth of Cancer Cell by Macrophage; assay type: cell-based; settings: for Inhibition of take-in of 3H-thymidine by EL-4 cells / activation of macrophage, in words: 8 mg/kg intraperitoneal; for Take-in Ratio of 3H-thymidine (average value): 8 mg/kg intraperitoneal to mice, macrophages collected after 4 days, mixed with EL-4 cells, control 80.2
Procedure: The results of the test of the action of the effective ingredient of the present invention on the macrophage will now be described with reference to the following Test 3. More specifically, the separated macrophage and EL-4 leukemic cell were mixed and cultured, and ^3 H-thymidine was added to a culture medium and the quantity of ^3 H-thymidine incorporated into the EL-4 cell was determined to examine the activity of the macrophage. When the macrophage is activated by administration of the effective ingredient of the present invention, inhibition of the growth of EL-4 cell, that is, phagocytosis of the cancer cell by the macrophage, is observed. Accordingly, if the take-in amount of ^3 H-thymidine is measured and this amount is reduced, it is confirmed that the macrophage has been activated. […] The dose was 8 mg per Kg of the body weight. To the control group, a physiological saline solution was similarly administered. After passage of 4 days, exuded abdominal cells were collected and deposited on a plastic Petri dish to collect macrophages. Then, 1×10^6 of so obtained macrophages and 1×10^5 of EL-4 leukemic cells of C57 BL/6J mouse were mixed and cultured in an RPMI 1640 culture medium to which 10% of bovine embryo serum was added (at 37° C. in the presence of 5% of CO2) for 24 hours. Then, 0.1μ Ci of ^3 H-thymidine was added and culturing was further conducted for 16 hours. Cells were collected on a filter paper from the culture medium and the amount of ^3 H-thymidine taken in was determined by a liquid scintillation counter. […] For comparison, the test was similarly carried out by using Levamisol hydrochloride.

Sarcoma 180 [1] = assay: Test 4: Test of Antitumor Effect to Sarcoma 180 by Oral Administration; assay type: in vivo, ICR female mice
Procedure: To the control group, a physiological saline solution was similarly administered. The dose of the compound was 100 mg per Kg of the body weight. The diameter D (mm) of the tumor was measured, and the average value and the number N of the living mice were determined to obtain results shown in Table 4.

Sarcoma 180 [2] = assay: Test 5: Test of Antitumor Effect to Sarcoma 180 by Subcutaneous Administration; assay type: in vivo, ICR female mice; settings: 20 mg/kg subcutaneous
Procedure: To the control group, a physiological saline solution was similarly administered. […] The diameter D (mm) of the tumor was measured, and the average value and the number N of the living mice were determined to obtain results shown in Table 4.

delayed hypersensitivity = assay: Test 1: Test of Reinforcement of Delayed Hypersensitivity (picryl chloride); assay type: in vivo, ICR male mice
Description: This system was used for the test of reinforcement of delayed hypersensitivity.
One group of eight ICR male mice, each having a body weight of about 30 g, were used for the test.
Sensitization was effected by coating a 7% solution of picryl chloride in a 4/1 mixture of olive oil and acetone on the shaved abdomen of the mouse.
Simultaneously with sensitization, a solution or suspension of the compound of the present invention in a 0.2% solution of carboxymethyl cellulose in a physiological saline was orally administered to the mouse at a dose of 50 mg per Kg of the body weight. To the control group, a 0.2% carboxymethyl cellulose solution in a physiological saline was similarly administered.
The delayed hypersensitivity was challenged 7 days after sensitization by gripping the ear of the mouse by a forceps wrapped with a felt impregnated with a 1% solution of picryl chloride in olive oil and coating the ear with the solution. The thickness of the ear was measured before challenging and 24 hours after challenging and the ratio of increase of the thickness (average value of both the ears in eight mice±standard deviation) was obtained as shown in Table 1.
For comparison, the test was similarly carried out by using Levamisole hydrochloride, and the obtained results are shown in Table 1. F.t tests were carried out. The group in which the test result was significant at a level of P<0.05 was marked by *, and the group in which the test result was significant at a level of P<0.01 was marked by **.

[3] = 50 mg/kg oral, simultaneously with sensitization, 24 h after challenge, control 29.6 ± 1.9, * P<0.05, ** P<0.01

## c1ccc([C@H]2CN3CCSC3=N2)cc1 [Levamisole hydrochloride, reference compound]
Adjuvant arthritis
  Swelling Ratio (average value ± standard variation), 15 days: 65.2 ± 5.9%
  Swelling Ratio (average value ± standard variation), 18 days: 69.3 ± 7.1%
  Swelling Ratio (average value ± standard variation), 21 days: 80.7 ± 9.6%
EL-4 leukemic cells
  Inhibition of take-in of 3H-thymidine by EL-4 cells / activation of macrophage, in words: does not exhibit such action
  Take-in Ratio of 3H-thymidine (average value): 49.0%
EL-4 leukemic cells; listed as Levamisole
  Inhibition of take-in of 3H-thymidine by EL-4 cells / activation of macrophage, in words: hardly exhibits such action
Sarcoma 180 [1]; 100 mg/kg oral once a day, 10 days, 2 weeks, control 10.6
  D: average diameter of tumor, 2 weeks: 10.2 mm
Sarcoma 180 [1]; 100 mg/kg oral once a day, 10 days, 4 weeks, control 15.2
  D: average diameter of tumor, 4 weeks: 16.2 mm
Sarcoma 180 [1]; 100 mg/kg oral once a day, 10 days, 6 weeks, control 22.4
  D: average diameter of tumor, 6 weeks: 20.7 mm
Sarcoma 180 [1]; 100 mg/kg oral once a day, 10 days, 8 weeks, control 31.5
  D: average diameter of tumor, 8 weeks: 29.6 mm
Sarcoma 180 [1]; 100 mg/kg oral once a day, 10 days, 10 weeks, control 37.6
  D: average diameter of tumor, 10 weeks: 28.1 mm
Sarcoma 180 [1]; 100 mg/kg oral, repeated
  Carcinostatic action on Sarcoma 180, in words: no substantial carcinostatic action was observed
Sarcoma 180 [1]; 100 mg/kg oral, of 6 mice, 0 weeks, control 6
  N: number of living mice, 0 weeks: 6
Sarcoma 180 [1]; 100 mg/kg oral, of 6 mice, 2 weeks, control 6
  N: number of living mice, 2 weeks: 6
Sarcoma 180 [1]; 100 mg/kg oral, of 6 mice, 4 weeks, control 6
  N: number of living mice, 4 weeks: 6
Sarcoma 180 [1]; 100 mg/kg oral, of 6 mice, 6 weeks, control 6
  N: number of living mice, 6 weeks: 6
Sarcoma 180 [1]; 100 mg/kg oral, of 6 mice, 8 weeks, control 5
  N: number of living mice, 8 weeks: 6
Sarcoma 180 [1]; 100 mg/kg oral, of 6 mice, 10 weeks, control 1
  N: number of living mice, 10 weeks: 3
Sarcoma 180 [2]
  Carcinostatic activity on Sarcoma 180, in words: no substantial carcinostatic activity
Sarcoma 180 [2]; 2 weeks, control 10.8
  D: average diameter of tumor, 2 weeks: 7.7 mm
Sarcoma 180 [2]; 4 weeks, control 16.6
  D: average diameter of tumor, 4 weeks: 14.8 mm
Sarcoma 180 [2]; 6 weeks, control 20.3
  D: average diameter of tumor, 6 weeks: 14.4 mm
Sarcoma 180 [2]; 8 weeks, control 31.3
  D: average diameter of tumor, 8 weeks: 30.2 mm
Sarcoma 180 [2]; 10 weeks, control 40.5
  D: average diameter of tumor, 10 weeks: 31.6 mm
Sarcoma 180 [2]; of 6 mice, 0 weeks, control 6
  N: number of living mice, 0 weeks: 6
Sarcoma 180 [2]; of 6 mice, 2 weeks, control 6
  N: number of living mice, 2 weeks: 6
Sarcoma 180 [2]; of 6 mice, 4 weeks, control 6
  N: number of living mice, 4 weeks: 6
Sarcoma 180 [2]; of 6 mice, 6 weeks, control 6
  N: number of living mice, 6 weeks: 6
Sarcoma 180 [2]; of 6 mice, 8 weeks, control 4
  N: number of living mice, 8 weeks: 3
Sarcoma 180 [2]; of 6 mice, 10 weeks, control 1
  N: number of living mice, 10 weeks: 2
Delayed hypersensitivity; mouse, in vivo
  Ratio of Increase of Ear Thickness (average value ± standard variation): 35.6 ± 2.4%

## CCN(CC)C(=O)N1CCN(c2ccccc2)CC1 [drawing 11]
Delayed hypersensitivity; [3]
  Ratio of Increase of Ear Thickness (average value ± standard variation): 44.0 ± 5.0%

## CCN(CC)C(=O)N1CCN(c2ccc(Cl)cc2)CC1 [drawing 12]
Delayed hypersensitivity; [3]
  Ratio of Increase of Ear Thickness (average value ± standard variation): 42.3 ± 3.7%

## CCN(CC)C(=O)N1CCN(c2ccc(OC)cc2)CC1 [drawing 13]
Delayed hypersensitivity; [3]
  Ratio of Increase of Ear Thickness (average value ± standard variation): 40.1 ± 4.2%

## CCOC(=O)c1ccc(N2CCN(C(=O)N(CC)CC)CC2)cc1 [drawing 14]
Delayed hypersensitivity; [3]
  Ratio of Increase of Ear Thickness (average value ± standard variation): 39.1 ± 4.0%

## CCN(CC)C(=O)N1CCN(c2ccc(C(=O)O)cc2)CC1 [drawing 15]
Delayed hypersensitivity; [3]
  Ratio of Increase of Ear Thickness (average value ± standard variation): 37.7 ± 3.0%

## CCN(CC)C(=O)N1CCN(c2ccc(C(C)=O)cc2)CC1 [drawing 16]
Delayed hypersensitivity; [3]
  Ratio of Increase of Ear Thickness (average value ± standard variation): 38.8 ± 3.5%

## CCN(CC)C(=O)N1CCN(c2ccc(OC)cc2)CC1 [drawing 19]
Adjuvant arthritis
  Swelling Ratio (average value ± standard variation), 15 days: 60.1 ± 11.3%
  Swelling Ratio (average value ± standard variation), 18 days: 57.1 ± 8.8%
  Swelling Ratio (average value ± standard variation), 21 days: 64.4 ± 10.5%

## CCOC(=O)c1ccc(N2CCN(C(=O)N(CC)CC)CC2)cc1 [drawing 20]
Adjuvant arthritis
  Swelling Ratio (average value ± standard variation), 15 days: 63.7 ± 12.0%
  Swelling Ratio (average value ± standard variation), 18 days: 60.4 ± 9.2%
  Swelling Ratio (average value ± standard variation), 21 days: 66.9 ± 11.1%

## CCN(CC)C(=O)N1CCN(c2ccc(C(=O)O)cc2)CC1 [drawing 21]
Adjuvant arthritis
  Swelling Ratio (average value ± standard variation), 15 days: 65.0 ± 10.2%
  Swelling Ratio (average value ± standard variation), 18 days: 64.6 ± 7.9%
  Swelling Ratio (average value ± standard variation), 21 days: 70.8 ± 10.7%

## CCN(CC)C(=O)N1CCN(c2ccc(C(C)=O)cc2)CC1 [drawing 22]
Adjuvant arthritis
  Swelling Ratio (average value ± standard variation), 15 days: 61.4 ± 10.4%
  Swelling Ratio (average value ± standard variation), 18 days: 62.2 ± 8.8%
  Swelling Ratio (average value ± standard variation), 21 days: 68.4 ± 12.0%

## CCN(CC)C(=O)N1CCN(c2ccccc2)CC1 [drawing 23]
EL-4 leukemic cells
  Take-in Ratio of 3H-thymidine (average value): 24.4%

## CCN(CC)C(=O)N1CCN(c2ccc(Cl)cc2)CC1 [drawing 24]
EL-4 leukemic cells
  Take-in Ratio of 3H-thymidine (average value): 20.5%

## CCN(CC)C(=O)N1CCN(c2ccc(OC)cc2)CC1 [drawing 25]
EL-4 leukemic cells
  Take-in Ratio of 3H-thymidine (average value): 27.7%

## CCOC(=O)c1ccc(N2CCN(C(=O)N(CC)CC)CC2)cc1 [drawing 26]
EL-4 leukemic cells
  Take-in Ratio of 3H-thymidine (average value): 30.3%

## CCN(CC)C(=O)N1CCN(c2ccc(C(=O)O)cc2)CC1 [drawing 27]
EL-4 leukemic cells
  Take-in Ratio of 3H-thymidine (average value): 29.8%

## CCN(CC)C(=O)N1CCN(c2ccc(C(C)=O)cc2)CC1 [drawing 28]
EL-4 leukemic cells
  Take-in Ratio of 3H-thymidine (average value): 27.4%
